Data: article PMC11173533, “Baicalin and Baicalein Enhance Cytotoxicity, Proapoptotic Activity, and Genotoxicity of Doxorubicin and Docetaxel in MCF-7 Breast Cancer Cells” (Molecules, 2024)

What was measured:
HUVEC = system: HUVEC; design: method as in Liu et al. [53]; settings: 50 µmol/L, 48 h; ref Liu et al. [53]; cited from earlier work
[1] = system: cleaved PARP in MCF-7 cells; experiment: Cleaved PARP In-Cell ELISA in MCF-7 cells; format: cell-based, human; settings: docetaxel + flavonoid IC50, most intense of all times and combinations
Protocol: (§1) Unless otherwise indicated, in experiments, cells were seeded at an appropriate density for the specific assay into 96-well plates or Petri dishes. They were then incubated in standard culture conditions, which included a temperature of 37 °C, 100% relative humidity, and a 5% CO2 incubator. […] After treatment, the cells were washed with PBS and, depending on the experiment, immediately used for measurement or cultured in a fresh medium for 24 or 48 h. Control cells were treated with a corresponding volume of PBS. Additional controls for solvents were also performed.
(§2) The expression of the protein was monitored using a target-specific primary antibody against an 85 kDa stable fragment of PARP proteolysis and a horseradish peroxidase-conjugated detection reagent.
(§3) The amount of cleaved PARP was measured in cells according to the manufacturer’s protocol immediately after the treatment and after 24 or 48 h postincubation. The absorbance was measured at a wavelength of λ = 450. Additionally, the whole cell staining was performed with Janus Green dye, and the absorbance was measured at a wavelength of λ = 615. […] Subsequently, the values were calculated as a fold increase, which means the ratio of an increased amount of cleaved PARP to the amount of cleaved PARP in control cells.

MCF-7 cell [2] = system: MCF-7 cell; design: method as in Wang et al. [49]; settings: 5–100 µmol/L for 72 h; ref Wang et al. [49]; cited from earlier work
MCF-7 cells [3] = experiment: Cytometric measurement of doxorubicin accumulation in MCF-7 cells; format: cell-based, human; settings: 22 h preincubation with flavonoid IC50, after 20 min of drug
Protocol: The aromatic rings in the hydrophobic part of doxorubicin give the drug molecule fluorescent properties (λex = 490 nm, λem = 590 nm). Thus, the flow cytometric measurement of drug fluorescence inside the cells allows for the monitoring of its transport rate through the cell membrane. The increase in the intensity of drug fluorescence inside the cells is highly correlated with its accumulation.
The DOX was added to the cell suspension to achieve a final concentration equal to the IC50 value. During one hour of incubation (temp 37 °C) with the drug, samples for cytometric measurement were taken from the cell suspension after the first 5 min and then after every 10 min. Samples were analyzed using the flow cytometer LSR® II from Becton Dickinson (San Jose, CA, USA) using an argon laser with a wavelength of λ = 488 nm. Doxorubicin fluorescence intensity was calculated per single cell.

MCF-7 cells [4] = experiment: MTT cell viability assay on MCF-7 cells; format: cell-based, human; settings: for IC50: Homo sapiens, MCF7, read-out: Inhibitory concentration IC50 (reduces cell viability by 50%); for IC50 / Inhibitory concentration IC10 (reduces cell viability by 10%): MCF-7 cell line, 24 h incubation, MTT; for Concentrations giving statistically significant reduction in the number of living cells: MCF-7, 24 h incubation with flavonoid, p < 0.05 vs control; for Viable cells: MCF-7, doxorubicin 3 µmol/L after 22 h preincubation with flavonoid IC50
Protocol: as §1
The principle of the method is a measurement of the absorbance of formazan, a product of the reduction of the water-soluble tetrazolium salt (MTT) by NADPH-dependent cellular oxidoreductases (mainly succinate dehydrogenase) in living cells. Formazan is insoluble in water and precipitates as purple crystals. The amount of formazan is proportional to the number of living and metabolically active cells.
After treatment, the cells were washed with PBS and cultured in a fresh medium for 48 h. Subsequently, the medium was aspirated, and an aliquot of 50 µL of 0.05 mg/mL MTT solution was added to each microplate well for 3 h. The formazan crystals were dissolved in dimethyl sulfoxide (DMSO), and the absorbance was measured at a wavelength of λ = 580 nm. The percentage of viable cells was calculated by comparing the absorbance value of the test samples to the absorbance value of the control, taking the absorbance of the control as 100%.

HUVEC-ST cells = experiment: Annexin V FITC/propidium iodide double staining in HUVEC-ST cells; format: cell-based, human
Protocol: as §1
This assay is based on the principle that, in viable cells, phosphatidylserine (PS) is located in the inner membrane (side facing the cytoplasm). However, upon induction of apoptosis, PS is translocated to the outer membrane (PS also appears on the necrotic cell surface). The exposed phosphatidylserine can be detected by protein Annexin V stained with FITC dye. The addition of propidium iodide (PI) enabled necrotic cells to be distinguished. Thus, this method is convenient for counting and differentiating live cells from those undergoing apoptosis or necrosis.
The analysis was performed according to the manufacturer’s protocol on cells immediately after the treatment and 24 or 48 h postincubation. Samples were analyzed using the flow cytometer LSR® II from Becton Dickinson (San Jose, CA, USA) using an argon laser with a wavelength of λ = 488 nm.

MCF-7 cells [5] = experiment: Alkaline comet assay in MCF-7 cells; format: cell-based, human
Protocol: as §1
The comet assay, also known as the single-cell gel electrophoresis assay, is a highly sensitive and versatile method for measuring single- and double-stranded DNA breaks. The assay uses an electric field to move negatively charged DNA fragments through an agarose gel. The amount of migration reflects the level of DNA damage in the cells.
The analysis was performed under alkaline conditions, according to the method of Singh et al., on cells immediately after the treatment and 24 or 48 h postincubation. […] One hundred randomly chosen cells were analyzed on each slide using a fluorescence microscope Zeiss Axio Scope A1 (Carl Zeiss, Oberkochen, Germany) with a video camera connected to the image-analysis system Lucia-Comet v. […]

[6] = system: cleaved PARP in HUVEC-ST cells; experiment: Cleaved PARP In-Cell ELISA in HUVEC-ST cells; format: cell-based, human
Protocol: as §1, §2, §3

MRP2 = system: MRP2; design: method as in PMID 15670588; settings: 25 µmol/L; ref [65]; cited from earlier work
MCF-7 cell [7] = system: MCF-7 cell; design: method as in Liu et al. [48]; settings: ref Liu et al. [48]; read-out: IC50, MCF-7 cell growth inhibition; cited from earlier work
[8] = flavonoid alone (high concentration), 48 h after incubation
[9] = docetaxel IC50 + flavonoid IC50, 24 h after incubation

| Compound | Viable HUVECs, % of the control (HUVEC) | PARP cleavage, fold increase to control [1] [fold] | Inhibitory effect on MCF-7 cell proliferation (MCF-7 cell [2]) | Amount of doxorubicin in cells relative to cells not treated with flavonoids (MCF-7 cells [3]) | IC50 (MCF-7 cells [4]) [µM] | Concentrations giving statistically significant reduction in the number of living cells (MCF-7 cells [4]) [µmol/L] | Viable cells (MCF-7 cells [4]) [%] | Inhibitory concentration IC10 (reduces cell viability by 10%) (MCF-7 cells [4]) [µM] | Viable cells (HUVEC-ST cells; doxorubicin IC50 + lower concentration (IC10) of flavonoid, longest postincubation time (48 h)) [%] | AV+/PI+ cells (HUVEC-ST cells; [8]) [%] | AV+/PI− cells (HUVEC-ST cells; [8]) [%] | DNA in the comet tail (MCF-7 cells [5]; [9]) [%] | DNA in the comet tail (MCF-7 cells [5]; docetaxel IC50 + flavonoid IC50, immediately after incubation) [%] | Amount of cleaved PARP relative to control cells ([6]; doxorubicin + flavonoid IC50, 48 h after incubation) | Amount of cleaved PARP relative to control cells ([6]; flavonoid IC50 alone, 24 and 48 h after incubation) | Inhibition of MRP2 protein activity (MRP2) | IC50 (MCF-7 cell [7]) [µM] | AV+/PI+ cells (HUVEC-ST cells; [9]) [%] | Change in percentage of AV+/PI− or AV+/PI+ cells vs doxorubicin alone (HUVEC-ST cells; doxorubicin IC50 + flavonoid IC50, 24 h after incubation) |
| --- | --- | --- | --- | --- | --- | --- | --- | --- | --- | --- | --- | --- | --- | --- | --- | --- | --- | --- | --- |
| O=C(O)[C@H]1O[C@@H](Oc2cc3oc(-c4ccccc4)cc(=O)c3c(O)c2O)[C@H](O)[C@@H](O)[C@@H]1O [baicalin, baicalein 7-O-β-D-glucuronide] | 61% ± 8% | 2.5 | did not observe any inhibitory effect | over two times higher | 250 ± 10.5 | ≥ 56 | 21 | 36 ± 3.4 | 55 | 30 | 19 |  |  |  |  |  |  |  |  |
| O=c1cc(-c2ccccc2)oc2cc(O)c(O)c(O)c12 [baicalein, 5,6,7-Trihydroxyflavone] | 37% ± 3% |  |  | over two times higher | 95 ± 4.8 | ≥ 10 | 10 | 9 ± 0.7 |  |  | 10 | 16 | 19 | twice higher than in control cells | nearly two times higher than in control cells | inhibit the activity of MRP2 and MRP1 proteins | 85.1 ± 1.26 | 44 | increased almost two-fold |
